Experimental data taken from publication PMC8465095, “Secondary Metabolites with α-Glucosidase Inhibitory Activity from Mangrove Endophytic Fungus Talaromyces sp. CY-3” (Marine Drugs, 2021).

Each compound was assayed against α-glucosidase (Saccharomyces cerevisiae, UniProt P53341) (assay: biochemical). Conditions: not given.
Sequence of α-glucosidase (P53341 whole entry): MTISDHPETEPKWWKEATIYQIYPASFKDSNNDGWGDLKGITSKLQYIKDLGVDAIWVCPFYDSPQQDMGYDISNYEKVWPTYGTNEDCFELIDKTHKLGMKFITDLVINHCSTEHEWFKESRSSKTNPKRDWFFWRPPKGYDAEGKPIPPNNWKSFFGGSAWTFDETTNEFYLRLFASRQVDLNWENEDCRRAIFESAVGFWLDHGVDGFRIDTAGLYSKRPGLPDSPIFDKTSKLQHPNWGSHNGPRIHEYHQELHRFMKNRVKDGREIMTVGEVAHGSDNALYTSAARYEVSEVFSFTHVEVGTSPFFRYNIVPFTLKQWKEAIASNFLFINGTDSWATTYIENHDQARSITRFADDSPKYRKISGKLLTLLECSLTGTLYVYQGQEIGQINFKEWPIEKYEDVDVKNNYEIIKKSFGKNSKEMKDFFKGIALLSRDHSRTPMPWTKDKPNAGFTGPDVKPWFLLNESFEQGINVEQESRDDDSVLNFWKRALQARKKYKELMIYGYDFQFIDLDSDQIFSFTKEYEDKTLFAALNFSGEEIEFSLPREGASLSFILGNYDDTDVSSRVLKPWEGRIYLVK

Row | Compound | IC50 [µM]
1 | CCC(C)CC(C)C=C(C)C1OC(c2c(O)c(-c3ccccc3)cn(C)c2=O)CCC1C (stereo not drawn) [Compound 1, Sambutoxin A] | 12.6 ± 0.9
2 | CCC(C)CC(C)C=C(C)C1OC(c2c(O)c(-c3ccc(O)cc3)cn(C)c2=O)CC=C1C (stereo not drawn) [Compound 2, Sambutoxin B] | 37.4 ± 1.4
3 | CC[C@H](C)C[C@@H](C)/C=C(\C)[C@@H]1O[C@H](c2c(O)c(-c3ccc(O)cc3)cn(C)c2=O)CC[C@H]1C [Compound 3, (–)-sambutoxin] | 16.9 ± 0.6

Same assay, conditions: positive control 1-deoxynojirimycin; DMSO blank; read-out: α-glucosidase inhibitory activity IC50

Row | Compound | IC50 [µM]
4 | COC1=CC(=O)C(C)(O)C(O)C1C (stereo not drawn) [Compound 11, Talaketides E] | > 100
5 | COC1=CC(=O)C(C)(O)C(O)C1C (stereo not drawn) [Compound 12, Talaketides F] | > 100

Same assay, conditions: read-out: α-glucosidase inhibitory activity IC50

Row | Compound | IC50 [µM]
6 | C/C=C/[C@@H]1Oc2c(-c3ccccc3)c[nH]c(=O)c2[C@@H]2[C@H]1CCC[C@H]2C [Compound 5, deoxyleporin B] | 57.3 ± 1.3
7 | CCC(C)C(=O)OC1(C)C(=O)C(C)=C(OC)C1O (stereo not drawn) [Compound 7, Talaketides A] | > 100
8 | COC1=CC(=O)C(C)(O)C1(O)C(C)=O (stereo not drawn) [Compound 8, Talaketides B] | > 100
9 | COC1=CC(=O)C(C)(O)C(O)C1C (stereo not drawn) [Compound 10, Talaketides D] | > 100
10 | C/C=C/[C@@H]1[C@H]2C[C@@H](C)CC[C@@H]2C(C)=C[C@H]1C(=O)c1c(O)c(-c2ccc(O)cc2)c[nH]c1=O [Compound 4, ilicicolin H] | 16.5 ± 0.7
11 | CCC(C)C(=O)OC1(C)C(=O)C(C)=C(OC)CC1OC (stereo not drawn) [Compound 9, Talaketides C] | > 100
12 | C/C=C/[C@@H]1Oc2c(-c3ccccc3)cn(O)c(=O)c2[C@@H]2[C@H]1CCC[C@H]2C [Compound 6, leporine B] | > 100
